US9394350B2, “HLA-A2 tumor associated antigen peptides and compositions” (OSE PHARMA INTERNATIONAL SA, priority 2003, dated 2016)
Like-named read-outs stand apart in the source and are kept apart here.

Tests used:
[1] = tested on: purified HLA-DR molecules; conditions: cited from earlier work; for IC50: high or intermediate affinity, most prevalent HLA-DR molecules, read-out: IC50 for HLA-DR binding; for Number of HLA-DR molecules bound: out of 16 DR molecules tested
[2] = Solubility of individual peptides
[3] = tested on: patients with recurrent or residual cervical carcinoma; conditions: cited from earlier work
[4] = tested on: PBMC obtained from healthy donors and cancer patients; conditions: primary in vitro induction in healthy donors and recall responses in cancer patients; cited from earlier work
HLA-A2.1 transgenic mice = conditions: shown by others; cited from earlier work
HLA-A2 supertype alleles = assay: MHC binding of motif-containing peptides to purified HLA-A2 supertype molecules; design: species or system human; conditions: all peptides bind prototype HLA-A2.1
Excerpt: Assays for determining binding are described in detail, e.g., in PCT publications WO 94/20127 and WO 94/03205, and other publications such Sidney et al., Current Protocols in Immunology 18.3.1 (1998); Sidney, et al., J. Immunol. 154:247 (1995); and Sette, et al., Mol. Immunol. 31:813 (1994). It should be noted that IC50 values can change, often dramatically, if the assay conditions are varied, and depending on the particular reagents used (e.g., HLA preparation, etc.). For example, excessive concentrations of HLA molecules will increase the apparent measured IC50 of a given ligand.
A computer-based motif and algorithm search was performed on the primary amino acid sequences of CEA, MAGE-2/3, HER-2/neu, and p53 to predict peptides most likely to bind the MHC molecules of the five alleles of the HLA-A2 supertype family (Tables 4 and 6) (Sette, A. and J. Sidney, Immunogenetics 50:201-212 (1999)). Motif and algorithm-positive peptides were then synthesized and tested for binding to purified HLA-A2.1, the molecule most frequently expressed in humans as well as other MHC molecules of the HLA-A2 supertype family.

[5] = tested on: colon cancer and NSCLC patients; conditions: out of 12 patients who received the DC vaccine; cited from earlier work
[6] = tested on: HLA-A2.1 positive target cells and wild-type peptide; assay: in vitro primary CTL induction with human PBMC, read-out on peptide-loaded targets; type: cell-based
Procedure: In the final step of the epitope screening process, peptides with high cross-reactive MHC binding to the HLA-A2 supertype family receptors were tested for immunogenicity. The assay is an in vitro primary CTL induction system where CD8^+ PBMC from normal subjects are stimulated in vitro, initially with peptide-loaded dendritic cells (DCs) (adherent PBMC expanded in GM-CSF and IL-4), followed by two weekly cycles of restimulation with peptide (Keogh, E., et al., J. Immunol. 167:787-796 (2001); Kawashima, I., et al., Hum. Immunol. 59:1-14 (1998)). Following expansion of naïve precursor cells, CTL activity is determined in the presence of HLA-A2.1 positive target cells and wild-type peptide, using cytotoxicity (^51Cr-release assay) or interferon-gamma (IFN-γ) production (ELISA) as the read-out. Immunogenic peptides that induced CTL were further tested for responses against the naturally processed epitope expressed on tumor cell lines. Epitopes that induced tumor-reactive CTL were considered as vaccine candidates.

[7] = pH 9.6, Solubility, Basic conditions (pH 9.6-13)
[8] = Solubility, Acidic conditions (pH 2-4)
[9] = Solubility, Acidic conditions (pH 2-4), 0.1% TFA, 0.15-0.1875M acetic acid, 25 mM pH 4 sodium acetate, 2-5 mg/ml
[10] = pH 9.6, Solubility, Basic conditions (pH 9.6-13), 25 mM pH 9.6 arginine, 25 mM pH 9.6 sodium bicarbonate, 0.1M NaOH, 2-5 mg/ml

## CC(C)C[C@H](NC(=O)[C@@H](NC(=O)[C@H](Cc1c[nH]c2ccccc12)NC(=O)[C@H](C)NC(=O)[C@H](C)NC(=O)[C@@H](NC(=O)[C@H](CC1CCCCC1)NC(=O)[C@H](CCCCN)NC(=O)[C@@H](C)N)C(C)C)[C@@H](C)O)C(=O)N[C@@H](CCCCN)C(=O)N[C@@H](C)C(=O)N[C@@H](C)C(=O)N[C@H](C)C(=O)O [Peptide 965.10, aKXVAAWTLKAAa]
[1]
  IC50: ≤ 1000 nM
[2]
  solubility: > 2000 µg/mL
[2]; pH 9.6
  solubility: < 5000 µg/mL
[3]; co-emulsified with HPV-derived CTL epitopes
  immunogenicity in humans: highly immunogenic in humans
[3]; patients with recurrent or residual cervical carcinoma
  safety: Safety was, in fact, demonstrated

## CC(C)C[C@H](NC(=O)[C@H](CC(C)C)NC(=O)[C@@H](N)CCCNC(=N)N)C(=O)N[C@@H](CCC(N)=O)C(=O)N[C@@H](CCC(=O)O)C(=O)N[C@H](C(=O)N[C@@H](CCC(=O)O)C(=O)N[C@@H](CC(C)C)C(=O)N[C@H](C(=O)O)C(C)C)[C@@H](C)O [Peptide 1013.08]
[4]
  specific CTL responses using PBMC: induced specific CTL responses
Solubility, DMSO
  solubility: > 2000 µg/mL
[7]
  solubility: > 2000 µg/mL

## CC[C@H](C)[C@H](NC(=O)CNC(=O)[C@H](Cc1ccccc1)NC(=O)[C@@H](NC(=O)[C@H](CC(C)C)NC(=O)[C@H](CCC(N)=O)NC(=O)[C@H](CC(C)C)NC(=O)[C@@H](N)Cc1ccc(O)cc1)C(C)C)C(=O)N[C@@H](CCC(=O)O)C(=O)N[C@H](C(=O)O)C(C)C [Peptide 1090.01]
[8]
  solubility: < 5000 µg/mL
Solubility, DMSO
  solubility: > 2000 µg/mL
[7]
  solubility: > 2000 µg/mL
HLA-A2.1 transgenic mice
  peptide and tumor cell-reactive CTL in vivo: induce peptide and tumor cell-reactive CTL in vivo

## CC(C)C[C@H](NC(=O)[C@@H](N)CC(C)C)C(=O)N[C@H](C(=O)N[C@@H](Cc1ccccc1)C(=O)N[C@@H](Cc1c[nH]c2ccccc12)C(=O)N[C@@H](CC(N)=O)C(=O)N1CCC[C@H]1C(=O)N1CCC[C@H]1C(=O)N[C@H](C(=O)O)C(C)C)[C@@H](C)O [Peptide 1243.08]
[8]
  solubility: > 2000 µg/mL
Solubility, DMSO
  solubility: > 2000 µg/mL
[7]
  solubility: > 2000 µg/mL

## CSCC[C@H](NC(=O)[C@@H](N)CO)C(=O)N1CCC[C@H]1C(=O)N1CCC[C@H]1C(=O)N1CCC[C@H]1C(=O)NCC(=O)N[C@H](C(=O)N[C@@H](CCCNC(=N)N)C(=O)N[C@H](C(=O)O)C(C)C)[C@@H](C)O [Peptide 1295.03]
HLA-A2.1 transgenic mice
  peptide and tumor cell-reactive CTL in vivo: induce peptide and tumor cell-reactive CTL in vivo
[2]; [9]
  solubility: > 2000 µg/mL
[2]; Solubility, DMSO, 2-5 mg/ml
  solubility: > 2000 µg/mL
[2]; [10]
  solubility: > 2000 µg/mL
[2]
  Solubility at physiological pH: soluble

## CC(C)C[C@H](NC(=O)[C@H](CCC(N)=O)NC(=O)[C@@H](NC(=O)[C@@H]1CCCN1C(=O)C(C)(C)NC(=O)[C@H](CC(C)C)NC(=O)[C@@H](N)CCCCN)C(C)C)C(=O)N[C@@H](Cc1c[nH]c2ccccc12)C(=O)N[C@H](C(=O)O)C(C)C [Peptide 1323.06, KLBPVQLWV]
[2]; [9]
  solubility: > 2000 µg/mL
[2]; Solubility, DMSO, 2-5 mg/ml
  solubility: > 2000 µg/mL
[2]; [10]
  solubility: > 2000 µg/mL
[2]
  Solubility at physiological pH: soluble

## CC(C)C[C@H](NC(=O)[C@H](CO)NC(=O)CNC(=O)[C@H](Cc1ccccc1)NC(=O)[C@@H](NC(=O)[C@@H](N)CCCCN)C(C)C)C(=O)N[C@@H](C)C(=O)N[C@@H](Cc1ccccc1)C(=O)N[C@H](C(=O)O)C(C)C [Peptide 1334.10]
[8]
  solubility: > 2000 µg/mL
Solubility, DMSO
  solubility: > 2000 µg/mL
[7]
  solubility: < 5000 µg/mL

## CC(C)C[C@H](NC(=O)[C@H](CC(N)=O)NC(=O)[C@H](CC(C)C)NC(=O)[C@H](CC(=O)O)NC(=O)[C@H](C)NC(=O)CNC(=O)[C@H](CO)NC(=O)[C@H](CC(C)C)NC(=O)[C@@H](N)Cc1ccc(O)cc1)C(=O)O [Peptide 1350.01]
HLA-A2 supertype alleles
  No. A2 Alleles Crossbound: 3
[5]
  clinical responders: five
[2]; [9]
  solubility: > 2000 µg/mL
[2]; Solubility, DMSO, 2-5 mg/ml
  solubility: > 2000 µg/mL
[2]; [10]
  solubility: > 2000 µg/mL
[2]
  Solubility at physiological pH: soluble

## CC[C@H](C)[C@H](N)C(=O)N[C@@H](CCSC)C(=O)N[C@H](C(=O)NCC(=O)N[C@@H](Cc1c[nH]cn1)C(=O)N[C@@H](CC(C)C)C(=O)N[C@H](C(=O)NCC(=O)N[C@H](C(=O)O)C(C)C)C(C)C)[C@@H](C)CC [Peptide 1352.02]
[2]; [9]
  solubility: > 2000 µg/mL
[2]; Solubility, DMSO, 2-5 mg/ml
  solubility: > 2000 µg/mL
[2]; [10]
  solubility: < 5000 µg/mL
[6]
  CTL activity of heteroclitic analog versus wild-type peptide: strong CTL activity which exceeds that of the wild-type peptide

## CC[C@H](C)[C@H](NC(=O)[C@H](CCC(=O)O)NC(=O)[C@H](C)NC(=O)[C@@H](NC(=O)[C@@H](N)CCCCN)C(C)C)C(=O)N[C@H](C(=O)N[C@@H](Cc1c[nH]cn1)C(=O)N[C@@H](Cc1ccccc1)C(=O)N[C@@H](CC(C)C)C(=O)O)C(C)C [Peptide 1352.03]
[2]; [9]
  solubility: > 2000 µg/mL
[2]; Solubility, DMSO, 2-5 mg/ml
  solubility: > 2000 µg/mL
[2]; [10]
  solubility: > 2000 µg/mL
[2]
  Solubility at physiological pH: soluble
[6]
  CTL activity of heteroclitic analog versus wild-type peptide: strong CTL activity which exceeds that of the wild-type peptide

## TT 830-843: tetanus toxoid (TT) peptide 830-843, a "universal" epitope (QYIKANSKFIGITE; UniProt P04958 830-843, looked up, fragment) [reference compound]
[1]
  Number of HLA-DR molecules bound: seven

## aKXVAAWTLKAAa-NH2
[1]
  IC50: ≤ 1000 nM
  Number of HLA-DR molecules bound: 15

## p53.149: wild-type version of analog p53.149M2 used in EP-2101 (STPPPGTRV; UniProt P04637 149-157, looked up, fragment) [reference compound]
[4]
  specific CTL responses using PBMC: induced specific CTL responses
